Patent US20050031537A1, “Multifunctional COX-2 inhibitors” (priority 2002, published 2005)

How the values were obtained:
HER-2/neu = assay: Western blotting for expression of HER-2/neu (test (b)); format: cell-based, human; settings: positive in 184B5/HER, BT474 and SKBR3 cells; 24 h; Western blot
Excerpt: (§1) We turn now to the criterion (b), that is at least 50% decrease in level of or 50% downregulation of expression of Class I family of receptors tyrosine kinase. The Class I family of receptors tyrosine kinase is described in Reese, M. D., et al Stem Cells 15, pages 1-8 (1997), the whole of which in incorporated herein by reference. Members of the family include HER-2/neu, HER-3, HER-4 and epidermal growth factor receptor (EGFR) and are single-chain membrane spanning proteins which have significant homology to one another including about 80% amino acid identity in the tyrosine kinase domain.
HER-2/neu (erbB-2) gene product is a 185-kDA transmembrane receptor tyrosine kinase that is described in some detail in said Reese et al publication and overexpression thereof has been associated with tumor growth in several kinds of cancer.
(§2) To evaluate the expression of Class I family of receptors tyrosine kinase (EGFR, HER-2/neu), Western blotting can be performed. Antibodies for EGFR and HER-2/neu can be obtained from Santa Cruz Biotechnology, Inc.
(§3) Expression of EGFR (performed in 184B5, 184B5/HER, 1483, LNCaP, HeLa and CaSki cells)and HER-2/neu (performed in 184B5/HER, SKBR3 and BT474 cells) was assessed in cells after treatment with test compound for 24 hours. 5×10^6 cells were used for the treatment. Western blotting technique was used to assess the expression levels in cells treated with the test compound compared to vehicle alone. Western blotting was carried out as follows:
(§4) Cell lysates were prepared by treating cells with lysis buffer (150 mM NaCl, 100 mM Tris (pH 8.0), 1% Tween 20, 50 mM diethyldithiocarbamate, 1 mM EDTA, 1 mM phenylmethylsulfonyl fluoride, 10 μg/ml aprotinin, 10 μg/ml trypsin inhibitor and 10 μg/ml leupeptin). Lysates were sonicated for 20 s on ice and centrifuged at 10,000×g for 10 min to sediment the particulate material. The protein concentration of the supernatant was measured by the method of Lowry, O. H., et al., J. Biol. Chem. 193, 265-275 (195 1). SDS/PAGE was performed under reducing conditions on 10% polyacrylamide gels as described by Laemmli, U.K., Nature (Lond.) 227, 680-685 (1970). The resolved proteins were transferred onto nitrocellulose sheets as detailed by Towbin, H. et al., Proc. Natl. Acad. Sci. USA 76, 4350-4354 (1979). The nitrocellulose membrane was then incubated with anti-EGFR antiserum or anti-HER-2/neu antiserum. Secondary antibody to IgG conjugated to horseradish peroxidase was used. The various antisera were purchased from Santa Cruz Biotechnology, Inc., CA. The blots were probed with the Renaissance Western blot detection system according to the manufacturer's instructions (PerkinElmer Life Sciences, Boston, Mass.).

EGFR = assay: Western blotting for expression of EGFR (test (b)); format: cell-based, human; settings: for Test (b) EGFR: at least 50% decrease in level of or 50% downregulation of expression: positive in 184B5, 184B5/HER, 1483, LNCaP, HeLa and CaSki cells, 24 h, Western blot
Excerpt: as §1
Epidermal growth factor receptor (EGFR) is a 170 kDA glycoprotein. […] After ligand binding, EGFR undergoes dimerization which is essential for activation of its enzymatic kinase activity. EGFR is thus autophospliorylated and transphosphorylated on tyrosine residues, and the phosphorylated residues become the site of association of effector proteins. Overexpressed EGFR is intimately involved in modulating the epidermal growth factor growth signal and is considered as likely to confer a growth advantage. This conclusion is supported by the observation that tumor growth in nude mice is inhibited by treatment with anti-EGFR antibodies and tumorigenicity in nude mice is inhibited through blockage of the tyrosine kinase activity of the receptor.
as §2, §3, §4

[1] = tested on: HPV16 oncoproteins E6 and E7; assay: Western and Northern blotting for HPV16 oncoproteins E6 and E7 (test (d)); format: cell-based, human papillomavirus; settings: for Test (d) at least 50% downregulation of expression of HPV16 oncoproteins E6 and E7: positive in CaSki and SiHa cells
Protocol: We turn now to the criterion (d), that is at least 50% downregulation of expression of HPV16 oncoproteins E6 and E7.
Protein E6 and E7 which are expressed by HPV16 are believed to play a major role in carcinogenesis.
Western blotting and Northern blotting techniques were used to evaluate the expression of HPV E6 and E7 proteins. The cell lines used for the study were CaSKi and SiHa. The cells were treated with the test compound and cell lysate was obtained as described above and subjected to Western blotting analysis. The Western blotting analysis was performed as described above except anti-HPV 16 E7 antibody was used to probe the blot. The antibody was obtained from Santa Cruz Biotechnology, Inc. CA. For Northern blotting, total cellular RNA was isolated from cell monolayers using an RNA isolation kit from QIAGEN Inc. after treatment with the test compound. 10 μg of total cellular RNA per lane were electrophoresed in a formaldehyde-containing 1.2% agarose gel and transferred to nylon-supported membranes. After baking, membranes were prehybridized overnight in a solution containing 50% formamide, 5×sodium chloride-sodium phosphate-EDTA buffer (SSPE), 5×Denhardt's solution, 0.1% SDS and 100 μg/ml single-stranded salmon sperm DNA and then hybridized for 12 h at 42° C. with radiolabeled cDNA probes for human HPV16 E6 or E7 cDNAs and 18S rRNA. E6 and E7 (as described in Woodworth, C. D., Cancer Res. 16, 4397-4402 (2000)) and 18S rRNA probes were labeled with [^32P]-CTP by random priming. After hybridization, membranes were washed twice for 20 min at room temperature in 2×SSPE-0.1% SDS, twice for 20 min in the same solution at 55° C., and twice for 20 min in 0.1×SSPE-0.1% SDS at 55° C. Washed membranes were then subjected to autoradiography.

Nrf-2 = assay: Western and Northern blotting for expression of Nrf-2 (test (g)); format: cell-based, human; settings: positive in 184B5, 184B5/HER, HCA7, HCT116, SKBR3, BT474 and CaSki cells
Protocol: We turn now to criterion (g), i.e. at least 50% increase in expression of Nrf-2. […] 13, 2001).
Western blotting and Northern blotting techniques were used to evaluate the expression of Nrf-2. The expression of Nrf-2 was evaluated in HCA7, HCT116, SKBR3, CaSki, 184B5/HER, 184B5 and BT474 cells. 5×10^6cells were used to treat either vehicle alone or the test compound. The Western blotting analysis was performed as described above except anti-Nrf-2 antibody was used to probe the blot. The antibody was obtained from Santa Cruz Biotechnology, Inc. CA. Northern blotting for Nrf-2 was performed as described above and cDNA for Nrf-2 as described in Gong, P., et al., J.Biol Chem 20; 276:27018-27025 (2001) was used as a probe.

Row | SMILES | Test (b) HER-2/neu: at least 50% decrease in level of or 50% downregulation of expression (HER-2/neu) | Test (b) EGFR: at least 50% decrease in level of or 50% downregulation of expression (EGFR) | Test (d) at least 50% downregulation of expression of HPV16 oncoproteins E6 and E7 [1] | Test (g) at least 50% increase in expression of Nrf-2 (Nrf-2) | decrease in level of EGFR (EGFR; 184B5 cells, 24 hours, Western blotting) | decrease in amounts of E6 mRNA ([1]; CaSki cells, 24 hours, 0-5.0 μM, Northern blotting) | inhibition of HPV16 E7 protein ([1]; CaSki cells, 24 hours, 0-5.0 μM, high concentration, Western blot)
1 | Cc1ccc(-c2cc(C(F)(F)F)nn2-c2ccc(S(N)(=O)=O)cc2)cc1 [Celecoxib] | + (A plus sign in the table indicates a positive result, that is meeting the test for each cell line as indicated above as providing a positive result) | + (A plus sign in the table indicates a positive result, that is meeting the test for each cell line as indicated above as providing a positive result) | + (A plus sign in the table indicates a positive result, that is meeting the test for each cell line as indicated above as providing a positive result) | + (A plus sign in the table indicates a positive result, that is meeting the test for each cell line as indicated above as providing a positive result) | – | – | –
2 | CCCCCCCOC(=O)Cc1c(C)n(C(=O)c2ccc(Cl)cc2)c2ccc(OC)cc12 [Indomethacin Analog 1, indomethacin heptyl ester] | + (A plus sign in the table indicates a positive result, that is meeting the test for each cell line as indicated above as providing a positive result) | + (A plus sign in the table indicates a positive result, that is meeting the test for each cell line as indicated above as providing a positive result) | + (A plus sign in the table indicates a positive result, that is meeting the test for each cell line as indicated above as providing a positive result) | + (A plus sign in the table indicates a positive result, that is meeting the test for each cell line as indicated above as providing a positive result) | – | – | –
3 | COc1ccc(OC(=O)Cc2c(C)n(C(=O)c3ccc(Cl)cc3)c3ccc(OC)cc23)cc1 [Indomethacin Analog 3, 1-(p-chlorobenzoyl)-5-methoxy-2-methyl-1H-indole-3-acetic acid, 4-methoxyphenyl ester] | + (A plus sign in the table indicates a positive result, that is meeting the test for each cell line as indicated above as providing a positive result) | + (A plus sign in the table indicates a positive result, that is meeting the test for each cell line as indicated above as providing a positive result) | – | + (A plus sign in the table indicates a positive result, that is meeting the test for each cell line as indicated above as providing a positive result) | – | – | –
4 | NS(=O)(=O)c1ccc(-n2nc(C(F)(F)F)cc2-c2ccc(Cl)cc2)cc1 [SC-236, 4-[5-(4-chlorophenyl)-3-(trifluoromethyl)-1H-pyrazol-1-yl]benzenesulfonamide] | + (A plus sign in the table indicates a positive result, that is meeting the test for each cell line as indicated above as providing a positive result) | + (A plus sign in the table indicates a positive result, that is meeting the test for each cell line as indicated above as providing a positive result) | + (A plus sign in the table indicates a positive result, that is meeting the test for each cell line as indicated above as providing a positive result) | + (A plus sign in the table indicates a positive result, that is meeting the test for each cell line as indicated above as providing a positive result) | more than 50% | greater than 50% | greater than 50%
5 | CS(=O)(=O)c1ccc(-n2nc(C(F)(F)F)cc2-c2ccc(F)cc2)cc1 [SC-58125, 4-[5-(4-fluorophenyl)-3-(trifluoromethyl)-1H-pyrazol-1-yl]benzenemethylsulfone] | + (A plus sign in the table indicates a positive result, that is meeting the test for each cell line as indicated above as providing a positive result) | + (A plus sign in the table indicates a positive result, that is meeting the test for each cell line as indicated above as providing a positive result) | + (A plus sign in the table indicates a positive result, that is meeting the test for each cell line as indicated above as providing a positive result) | + (A plus sign in the table indicates a positive result, that is meeting the test for each cell line as indicated above as providing a positive result) | – | – | –
